Data published in patent US20120122981A1, “Biomarkers Related to Insulin Resistance and Methods using the Same” (priority 2009, published 2012).

Columns and labels:
[1] = pre-diabetic patients, DPP; cited from earlier work
[2] = Predicted and actual Rd before and after treatment with the insulin sensitizer muraglitozar; format: in vivo, human; conditions: 16 subjects, pre- vs post-treatment, plasma biomarkers 1-25
Procedure: C-Mur1, baseline prior to muraglitazar treatment; D-Mur2, following treatment with muraglitazar, a peroxisome proliferator-activated receptor agonist and an insulin sensitizer drug. […] Biomarkers 1-25 listed in Table 4 were measured in plasma samples collected from 16 subjects that were taking the insulin sensitizer muraglitozar. The samples were collected pre-(C-Mur—1) and post-treatment (D-Mur—2) with muraglitozar.

Row | SMILES | reduction of the rate of progression to diabetes [1] | change in predicted Rd with treatment, in agreement with actual Rd by HI clamp [2]
1 | CN(C)C(=N)N=C(N)N [metformin] | 38% | –
2 | COc1ccc(OC(=O)N(CC(=O)O)Cc2ccc(OCCc3nc(-c4ccccc4)oc3C)cc2)cc1 [muraglitozar] | – | increased
